Data on two compounds can be found in ChEMBL document CHEMBL1681723, “Phellinstatin, a new inhibitor of enoyl-ACP reductase produced by the medicinal fungus Phellinus linteus” (Bioorg Med Chem Lett, 2011).

The subject of test [1] is Staphylococcus aureus. In words: Antibacterial activity against methicillin-resistant Staphylococcus aureus CCARM 3167. The class given is functional.
Test [2] addresses T1, Enoyl-[acyl-carrier-protein] reductase [NADPH] FabI (Staphylococcus aureus) (UniProt Q6GI75).
T1 sequence (whole entry): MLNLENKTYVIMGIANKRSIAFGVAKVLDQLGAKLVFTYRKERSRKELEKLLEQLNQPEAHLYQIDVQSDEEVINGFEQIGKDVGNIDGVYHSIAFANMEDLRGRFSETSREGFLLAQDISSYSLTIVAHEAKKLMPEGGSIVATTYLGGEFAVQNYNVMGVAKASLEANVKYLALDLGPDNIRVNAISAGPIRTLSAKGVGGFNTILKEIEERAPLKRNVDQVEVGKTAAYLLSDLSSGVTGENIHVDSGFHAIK
In words: (§1) Inhibition of Staphylococcus aureus enoyl-ACP reductase assessed as increase of NADPH level.

The target of test [3] is T2, Enoyl-[acyl-carrier-protein] reductase [NADPH] FabI (Staphylococcus aureus, UniProt Q6GI75).
T2 sequence (Q6GI75 whole entry): T1 sequence (whole entry)
The test is described as §1.

In test [4] the test system is Staphylococcus aureus. In words: Antibacterial activity against Staphylococcus aureus RN4220. The class given is functional.
For test [5], the system named is Staphylococcus aureus. Description: Antibacterial activity against Staphylococcus aureus RN4220 at 128 ug/ml. The class given is functional, organism-based.
The test system of test [6] is Staphylococcus aureus. Description: Antibacterial activity against methicillin-resistant Staphylococcus aureus CCARM 3167 at 128 ug/ml. Type of test: functional, organism-based.

SMILES strings stand for the structures. ≈ marks a conversion by molar mass, not a printed value. Calls of active or inactive are those of the source. No cut-off for these calls is given here.

As to `O=c1cc(O)cc([C@H]2c3c(cc(/C=C/c4cc(O)c(O)cc4-c4c(O)cc(/C=C/c5ccc(O)c(O)c5)oc4=O)oc3=O)O[C@@H]2c2ccc(O)c(O)c2)o1` [PHELLINSTATIN], the MIC in test [1] and in test [4] was 128 µg/mL (≈ 174 µM) each time. Further, the inhibition entry in test [2] was “Dose-dependent effect”. In addition, the IC50 in test [3] amounted to 6 µM.
In the case of `O=c1cc(O)cc([C@H]2c3c(cc(/C=C/c4ccc(O)c(O)c4)oc3=O)O[C@@H]2c2ccc(O)c(O)c2)o1` [HYPHOLOMINE B], the IC50 in test [3] stood at 15.3 µM. For the same compound, the result in test [5] and in test [6] was inactive.
